Measured values as given in patent publication US9149424B2, “Compositions and methods for reducing hepatotoxicity associated with drug administration” (YALE UNIVERSITY, priority 2007, dated 2015).
Entries after “also recorded” stand apart in the source; their conditions may differ.

What was measured:
[1] = tested on: IL-1β; experiment: ELISA for serum IL-1β after APAP; type: in vivo, mouse; settings: APAP with vs without ASA in drinking water; p<0.02
Method: ELISA for serum IL1-β was carried out by standard protocols.

[2] = tested on: NALP3 inflammasome; experiment: Uric acid (MSU crystal) peritonitis, Gr-1 positive neutrophils in peritoneal lavage; type: in vivo, mouse; settings: low dose aspirin (60 mg/l) in drinking water for three days before MSU 3 mg ip; lavage at 3 hours
Method: Peritonitis was induced with uric acid crystals as previously described by injecting 3 mg of MSU intraperitoneally per mouse (27). Three hours after injection peritoneal lavage was performed on mice euthanized by isoflurane inhalation. Neutrophil infiltration was evaluated by flow cytometry. The percent of Gr-1 (BD Pharmingen, CA) positive cells was multiplied by the total cell counts.

[3] = tested on: pro-IL-1β transcript in THP1 cells; experiment: THP1 cells stimulated with LPS, real-time PCR pro-IL-1β; type: cell-based, human; settings: THP1 cells incubated overnight with aspirin (1.5 mM, 0.15 mM), then LPS 10 μg/ml 8 hours
Method: The human monocytic cell line THP1 was maintained in RPMI with 10% FBS. Stimulation with LPS (Sigma, Mo.) was performed by plating cells at 5×10^5 per 24 well, incubating overnight with aspirin or control media prior to adding LPS at 10 μg/ml for 8 hours.

[4] = tested on: wild-type mice; experiment: APAP induced hepatotoxicity, liver histology (H&E) at 12 hours; type: in vivo, mouse; settings: aspirin 60 mg/l in drinking water three days before APAP; 12 hours after APAP
Method: (§1) APAP (Sigma, Mo.) solution was made fresh for each experiment in PBS at 20 mg/ml and heated in a water bath to 55° C. to dissolve. APAP was dosed at 500 mg/kg and injected I.P after 15 hrs of starvation. Animals were euthanized by ketamine/xylazine injection at 12 hours for collection of serum, isolation of liver lymphocytes or collection of liver tissue for histology, or they were observed every four hours for 72 hours until they reached criteria for euthanasia (lack of response to stimuli or lack of righting reflex).
Aspirin (Sigma, Mo.) was made fresh for each experiment. For dosing prior to APAP it was dissolved in single deionized water at 60 mg/l and heated to 42° C. with rapid stirring to dissolve, then rapidly placed in an ice water bath to cool. Aspirin in water was given to the mice 60-72 hours prior to APAP injection. Assuming water consumption of 3-5 ml per day this dose would be equivalent to a 300-500 mg dose in an 80 kg adult human. For co-administration of APAP and aspirin, aspirin was gavaged at a dose of 6 mg/kg in a volume of 100 ul of water immediately after ip injection of APAP. Clopidogrel (Gilead Pharmaceuticals, CA.) was dissolved in PBS at 6 mg/ml and administered by gavage of 100 ul, 30 mg/kg, every 24 hours beginning 48 hours prior and ending 24 hours after APAP injection. Cox-1 inhibitor (SC-560). […]

[5] = tested on: wild-type mice; experiment: Acetaminophen (APAP) induced hepatotoxicity, survival over 72 hours; type: in vivo, mouse
Method: C57BL/6 mice were purchased from commercial sources. […] These mice have been described previously (39, 40). IL-1β was neutralized in by using the anti-IL-1β antibody from clone B122 (a gift of R. Schreiber, Washington University) at a dose of 0.2 mg/mouse iv twice a day for a total of 48 hours after giving APAP. Control mice received Armenian hamster isotype control antibody. For survival experiments animals were euthanized when they became moribund using criteria of lack of response to stimuli or lack of righting reflex. Animal protocols were approved by the Yale University animal care and use committee. [include references for IPAF−/− (M. Lara-Tejero et al. JEM 2006) and IL-18−/−. Need to add TLR9−/− and TLR3−/−]
as §1
Aspirin (Sigma, Mo.) was made fresh for each experiment. For dosing prior to APAP it was dissolved in single deionized water at 60 mg/l and heated to 42° C. with rapid stirring to dissolve, then rapidly placed in an ice water bath to cool. Aspirin in water was given to the mice 60-72 hours prior to APAP injection. Assuming water consumption of 3-5 ml per day this dose would be equivalent to a 300-500 mg dose in an 80 kg adult human. For co-administration of APAP and aspirin, aspirin was gavaged at a dose of 6 mg/kg in a volume of 100 ul of water immediately after ip injection of APAP. Clopidogrel (Gilead Pharmaceuticals, CA.) was dissolved in PBS at 6 mg/ml and administered by gavage of 100 ul, 30 mg/kg, every 24 hours beginning 48 hours prior and ending 24 hours after APAP injection. Cox-1 inhibitor (SC-560). SC-560 (Cayman chemical, MI) was dissolved at 50 mg/ml in DMSO and further dissolved in PBS in order to gavage a dose of 5 mg/kg in 100 ul.

[6] = tested on: pro-IL-18 transcript; experiment: Quantitative real-time PCR of total liver 12 hours after APAP, pro-IL-18; type: in vivo, mouse; settings: aspirin pre-treatment in drinking water
Method: as §1
(§2) Q-PCR was performed for IL-1β and IL-18 using commercial primer-probe sets (Applied Biosystems, Framingham, Mass.) and the Applied Biosystem 7500 real-time PCR system. Expression of glyceraldehyde 3-phosphate dehydrogenase was used to standardize the samples, and the results were expressed as a ratio compared with untreated HSCs. Quantitative Real-time PCR for mRNA expression of IL-18, IL-1β, TNF-α and IFN-γ. Total mouse liver was obtained 12 hours after APAP and cDNA was prepared. Quantitative real-time PCR (Q-PCR) was performed for IL-18 and IL-1β using commercial primer-probe sets (Applied Biosystems, Calif.) and the Applied Biosystem 7500 real time PCR system. Expression of GAPDH was used to standardize the samples, and the results were expressed as a ratio compared to control.

[7] = tested on: mice and rats; settings: aspirin 200-600 mg/kg (dose range toxic to humans); cited from earlier work
[8] = tested on: wild-type mice; experiment: APAP induced hepatotoxicity, serum ALT at 12 hours; type: in vivo, mouse; settings: aspirin pre-treatment in drinking water; 12 hrs after APAP; P<0.04
Method: as §1
Aspirin (Sigma, Mo.) was made fresh for each experiment. For dosing prior to APAP it was dissolved in single deionized water at 60 mg/l and heated to 42° C. with rapid stirring to dissolve, then rapidly placed in an ice water bath to cool. Aspirin in water was given to the mice 60-72 hours prior to APAP injection. Assuming water consumption of 3-5 ml per day this dose would be equivalent to a 300-500 mg dose in an 80 kg adult human. For co-administration of APAP and aspirin, aspirin was gavaged at a dose of 6 mg/kg in a volume of 100 ul of water immediately after ip injection of APAP. […]
(§3) TLR9 antagonist (ODN2088, 50 microg×2) or PBS, were injected ip into wild-type mice immediately after and at 6 hours after APAP injection and total mouse liver was obtained 12 hours after APAP injection for quantitative Q-PCR for IL-1β. […]

[9] = tested on: IFN-γ; experiment: Quantitative real-time PCR of total liver 12 hours after APAP, IFN-γ; type: in vivo, mouse; settings: aspirin pre-treatment
Method: as §1, §2

[10] = tested on: TNF-α; experiment: Quantitative real-time PCR of total liver 12 hours after APAP, TNF-α; type: in vivo, mouse; settings: aspirin pre-treatment
Method: as §1, §2

[11] = tested on: pro-IL-1β transcript; experiment: Quantitative real-time PCR of total liver 12 hours after APAP, pro-IL-1β; type: in vivo, mouse; settings: aspirin pre-treatment in drinking water
Method: as §1, §3
as §2, with “Total mouse liver was obtained 12 hours after APAP and cDNA was prepared.” left out, “Expression of GAPDH was used to standardize the samples, and the results were expressed as a ratio compared to control.” left out

Q: What does the source list for CC(=O)Oc1ccccc1C(=O)O [aspirin, acetylsalicylic acid]?
A: serum IL-1β levels [1]: significant reduction; neutrophil exudates in MSU peritonitis [2]: eightfold reduction; LPS induced up-regulation of pro-IL-1β transcript [3]: reduced; liver histology (liver injury and hemorrhage) [4]: significant reduction in APAP induced liver injury and hemorrhage; also recorded: markedly improved; survival after APAP ([5]; aspirin 60 mg/l in drinking water 3 days before APAP 500 mg/kg ip, control n=13, aspirin n=17, P<0.02): markedly improved survival; survival ([5]; aspirin given concordantly with APAP, 6 mg/kg gavage, control 22%+/−19%, P<0.04): 43%+/−11%; increase in pro-IL-18 message by APAP, whole liver [6]: reduced to normal levels; liver injury from APAP [7]: reduce liver injury; survival from APAP [7]: not improve survival; serum ALT [8]: significantly lower; expression of IFN-γ, whole liver [9]: reduced; expression of TNF-α, whole liver [10]: reduced; increase in pro-IL-1β message by APAP, whole liver [11]: reduced to normal levels

Q: Which “protection against APAP toxicity (survival)” value ([5]; SC-560 5 mg/kg gavage twice daily from 60 hours before to 48 hours after APAP, n=10 each, P<0.97) does the source give for COc1ccc(-n2nc(C(F)(F)F)cc2-c2ccc(Cl)cc2)cc1 [SC-560] here?
A: did not protect

Q: Which “protection against APAP toxicity (survival)” value ([5]; clopidogrel 30 mg/kg gavage every 24 hrs from 48 hours before to 24 hours after APAP, n=15 each, P<0.31) does the source give for COC(=O)[C@H](c1ccccc1Cl)N1CCc2sccc2C1 [clopidogrel] here?
A: did not protect
